Calls of active or inactive are those of the source. The rule behind the calls is not given here.
Experiments:
Liposcelis paeta [1] = assay: Insecticidal activity against Liposcelis paeta in compound pre-treated rice grains assessed as mortality at 2.2 ppm after 7 days (reference value: 3.3 +/-1.7%); format: functional
Liposcelis entomophila [2] = assay: Insecticidal activity against Liposcelis entomophila in compound pre-treated maize grains assessed as mortality at 1.6 ppm after 7 days (reference value: 15.6 +/-6.9%); format: functional
Liposcelis entomophila [3] = assay: Insecticidal activity against Liposcelis entomophila in compound pre-treated rice grains assessed as mortality at 2.2 ppm after 14 days (reference value: 10.0 +/-4.7%); format: functional
Liposcelis paeta [4] = assay: Insecticidal activity against Liposcelis paeta in compound pre-treated wheat grains assessed as mortality at 1.6 ppm after 14 days (reference value: 5.6 +/-1.8%); format: functional
Liposcelis paeta [5] = assay: Insecticidal activity against Liposcelis paeta in compound pret-reated wheat grains assessed as mortality at 1.6 ppm after 7 days (reference value: 7.8 +/-3.2%); format: functional; details: 168 h
[6] = test system: Liposcelis bostrychophila; assay: Insecticidal activity against Liposcelis bostrychophila (booklice) in compound pre-treated maize grains assessed as decrease in progeny production at 1.6 ppm after 30 days; format: functional, organism-based
[7] = test system: Liposcelis bostrychophila; assay: Insecticidal activity against Liposcelis bostrychophila (booklice) in compound pre-treated rice grains assessed as effect on progeny production at 2.2 ppm after 30 days; format: functional, organism-based
[8] = test system: Liposcelis bostrychophila; assay: Insecticidal activity against Liposcelis bostrychophila (booklice) in compound pre-treated wheat grains assessed as effect on progeny production at 1.6 ppm after 30 days; format: functional, organism-based
[9] = test system: Liposcelis bostrychophila; assay: Insecticidal activity against Liposcelis bostrychophila (booklice) in compound pre-treated maize grains assessed as mortality at 1.6 ppm after 14 days (reference value: 13.5 +/-5.3%); format: functional
[10] = test system: Liposcelis bostrychophila; assay: Insecticidal activity against Liposcelis bostrychophila (booklice) in compound pre-treated maize grains assessed as mortality at 1.6 ppm after 7 days (reference value: 8.9 +/-2.6%); format: functional
[11] = test system: Liposcelis bostrychophila; assay: Insecticidal activity against Liposcelis bostrychophila (booklice) in compound pre-treated rice grains assessed as mortality at 2.2 ppm after 14 days (reference value: 9.7 +/-2.4%); format: functional
[12] = test system: Liposcelis bostrychophila; assay: Insecticidal activity against Liposcelis bostrychophila (booklice) in compound pre-treated rice grains assessed as mortality at 2.2 ppm after 7 days (reference value: 8.9 +/-4.5%); format: functional
[13] = test system: Liposcelis bostrychophila; assay: Insecticidal activity against Liposcelis bostrychophila (booklice) in compound pre-treated wheat grains assessed as mortality at 1.6 ppm after 14 days (reference value: 6.8 +/-3.3%); format: functional
[14] = test system: Liposcelis bostrychophila; assay: Insecticidal activity against Liposcelis bostrychophila (booklice) in compound pre-treated wheat grains assessed as mortality at 1.6 ppm after 7 days (reference value: 3.3 +/-1.7%); format: functional
Liposcelis entomophila [15] = assay: Insecticidal activity against Liposcelis entomophila in compound pre-treated maize grains assessed as decrease in progeny production at 1.6 ppm after 30 days; format: functional, organism-based
Lepinotus reticulatus [16] = assay: Insecticidal activity against Lepinotus reticulatus in compound pre-treated maize grains assessed as mortality at 1.6 ppm after 7 days (reference value: 34.4 +/-11.4%); format: functional
Lepinotus reticulatus [17] = assay: Insecticidal activity against Lepinotus reticulatus in compound pre-treated rice grains assessed as mortality at 2.2 ppm after 14 days (reference value: 15.5 +/-4.1%); format: functional
Lepinotus reticulatus [18] = assay: Insecticidal activity against Lepinotus reticulatus in compound pre-treated rice grains assessed as mortality at 2.2 ppm after 7 days (reference value: 6.8 +/-2.4%); format: functional
Lepinotus reticulatus [19] = assay: Insecticidal activity against Lepinotus reticulatus in compound pre-treated wheat grains assessed as mortality at 1.6 ppm after 14 days (reference value: 21.1 +/-7.4%); format: functional
Lepinotus reticulatus [20] = assay: Insecticidal activity against Lepinotus reticulatus in compound pre-treated wheat grains assessed as mortality at 1.6 ppm after 7 days (reference value: 10.0 +/-5.3%); format: functional
Lepinotus reticulatus [21] = assay: Insecticidal activity against Lepinotus reticulatus in compound pre-treated rice grains assessed as effect on progeny production at 2.2 ppm after 30 days; format: functional, organism-based
Liposcelis entomophila [22] = assay: Insecticidal activity against Liposcelis entomophila in compound pre-treated rice grains assessed as effect on progeny production at 2.2 ppm after 30 days; format: functional, organism-based
Liposcelis entomophila [23] = assay: Insecticidal activity against Liposcelis entomophila in compound pre-treated wheat grains assessed as decrease in progeny production at 1.6 ppm after 30 days; format: functional, organism-based
Liposcelis entomophila [24] = assay: Insecticidal activity against Liposcelis entomophila in compound pre-treated maize grains assessed as mortality at 1.6 ppm after 14 days (reference value: 14.4 +/-4.1%); format: functional
Liposcelis entomophila [25] = assay: Insecticidal activity against Liposcelis entomophila in compound pre-treated rice grains assessed as mortality at 2.2 ppm after 7 days (reference value: 3.3 +/-2.6%); format: functional
Liposcelis entomophila [26] = assay: Insecticidal activity against Liposcelis entomophila in compound pre-treated wheat grains assessed as mortality at 1.6 ppm after 14 days (reference value: 13.3 +/-4.7%); format: functional
Liposcelis entomophila [27] = assay: Insecticidal activity against Liposcelis entomophila in compound pre-treated wheat grains assessed as mortality at 1.6 ppm after 7 days (reference value: 5.6 +/-2.9%); format: functional
Lepinotus reticulatus [28] = assay: Insecticidal activity against Lepinotus reticulatus in compound pre-treated maize grains assessed as decrease in progeny production at 1.6 ppm after 30 days; format: functional, organism-based
Lepinotus reticulatus [29] = assay: Insecticidal activity against Lepinotus reticulatus in compound pre-treated wheat grains assessed as decrease in progeny production at 1.6 ppm after 30 days; format: functional, organism-based
Lepinotus reticulatus [30] = assay: Insecticidal activity against Lepinotus reticulatus in compound pre-treated maize grains assessed as mortality at 1.6 ppm after 14 days (reference value: 61.1 +/-11.9%); format: functional
Liposcelis paeta [31] = assay: Insecticidal activity against Liposcelis paeta in compound pre-treated maize grains assessed as mortality at 1.6 ppm after 14 days (reference value: 14.1 +/-4.1%); format: functional
Liposcelis paeta [32] = assay: Insecticidal activity against Liposcelis paeta in compound pret-reated maize grains assessed as mortality at 1.6 ppm after 7 days (reference value: 13.3 +/-3.3%); format: functional; details: 168 h
Liposcelis paeta [33] = assay: Insecticidal activity against Liposcelis paeta in compound pre-treated rice grains assessed as mortality at 2.2 ppm after 14 days (reference value: 3.4 +/-1.6%); format: functional

**Q.** Which results are given for `C=C/C=C\CC1=C(C)[C@@H](OC(=O)[C@@H]2[C@@H](/C=C(\C)C(=O)OC)C2(C)C)CC1=O` [PYRETHRIN]?
**A.** mortality at 2.2 ppm (Liposcelis paeta [1]): 15.7%; mortality at 1.6 ppm (Liposcelis entomophila [2]): 17.8%; mortality at 2.2 ppm (Liposcelis entomophila [3]): 16.7%; mortality at 1.6 ppm (Liposcelis paeta [4]): 14.4%; mortality at 1.6 ppm (Liposcelis paeta [5]): 14.5%; inhibition [6]: Active; inhibition [7]: inactive; inhibition [8]: inactive; mortality at 1.6 ppm [9]: 23.3%; mortality at 1.6 ppm [10]: 18.9%; mortality at 2.2 ppm [11]: 26.5%; mortality at 2.2 ppm [12]: 23.3%; mortality at 1.6 ppm [13]: 30%; mortality at 1.6 ppm [14]: 17.8%; inhibition (Liposcelis entomophila [15]): Active; mortality at 1.6 ppm (Lepinotus reticulatus [16]): 57.8%; mortality at 2.2 ppm (Lepinotus reticulatus [17]): 14.3%; mortality at 2.2 ppm (Lepinotus reticulatus [18]): 23.4%; mortality at 1.6 ppm (Lepinotus reticulatus [19]): 65.7%; mortality at 1.6 ppm (Lepinotus reticulatus [20]): 41.1%; inhibition (Lepinotus reticulatus [21]): inactive; inhibition (Liposcelis entomophila [22]): inactive; inhibition (Liposcelis entomophila [23]): Active; mortality at 1.6 ppm (Liposcelis entomophila [24]): 60%; mortality at 2.2 ppm (Liposcelis entomophila [25]): 8.9%; mortality at 1.6 ppm (Liposcelis entomophila [26]): 55.6%; mortality at 1.6 ppm (Liposcelis entomophila [27]): 47.8%; inhibition (Lepinotus reticulatus [28]): Active; inhibition (Lepinotus reticulatus [29]): Active; mortality at 1.6 ppm (Lepinotus reticulatus [30]): 86.7%; mortality at 1.6 ppm (Liposcelis paeta [31]): 18.9%; mortality at 1.6 ppm (Liposcelis paeta [32]): 10%; mortality at 2.2 ppm (Liposcelis paeta [33]): 31.1%

Reference: ChEMBL document CHEMBL3044811, “Efficacy of grain protectants against four psocid species on maize, rice and wheat” (2009)
